Broadly, the fold induction is the ratio of treated to control signal. The term EC50 denotes the midpoint of the concentration-response curve. High values mean weaker potency, low ones greater potency.

The values that follow come from US9783510B2, “Small molecule mediated transcriptional induction of E-cadherin” (Vanderbilt University, priority 2014, dated 2017).

The first experiment concerns E-cadherin expression in SW620 cells. Put plainly: E-cadherin expression, in-cell Western (ICW), SW620 cells. The experiment is classed as cell-based. As to conditions: Homo sapiens, SW-620, 24 h, change in expression level of E-cadherin in response to 10 μM compound, 24 hours, SW620 cells. As to the method:
SW620 and H520 cells (5×10^4/100 μL) were seeded in a 96-well plate prior to treatment. Cells were treated with 10 μM concentration of synthesized compound in quadruplicate for 24 hours in RPMI 1640 supplemented medium and 100 μg/mL penicillin-streptomycin. The cells were then fixed with 100% methanol for 20 minutes at 4° C. The wells were then washed 2 times with PBS, permeabilized in 2% bovine serum albumin (BSA) and 0.2% TritonX-100 in PBS for 30 minutes at room temperature with gentle agitation, and blocked in LI-COR blocking buffer for 30 minutes at room temperature with gentle agitation. The cells were then incubated with the following primary antibodies: anti-E-Cadherin (1:500) and anti-α-Tubulin (1:1000) diluted in blocking buffer (1:1 dilution in PBS) for 2 hours at room temperature with gentle agitation. The cells were washed 4 times in PBS-T for 5 minutes each, and then incubated with the following secondary antibodies conjugated to a fluorescent entity: IRDye 800-conjugated goat anti-rabbit IgG (1:1000) and IRDye-700-conjugated goat anti-mouse IgG (1:2000) in blocking buffer (1:1 dilution in PBS) with gentle agitation for 1 h at room temperature. The cells were washed 4 times in PBS-T for 5 minutes each followed by a single wash with PBS. All liquid was removed from the wells and the plates were visualized and analyzed on the Odyssey IR imaging system (LI-COR Biosciences).
The assay was further optimized in the following manner. The cells were washed 2 times with PBS, fixed in 100% methanol at room temperature for 15 minutes, and again washed 2 times with PBS. The cells were then incubated with the following primary antibodies: anti-E-Cadherin (1:200) and anti-α-Tubulin (1:2000) diluted in ice cold 2% bovine serum albumin (BSA) and 0.2% TritonX-100 in PBS for 1 hour at room temperature with gentle agitation. The cells were washed 2 times in PBS and then incubated with the following secondary antibodies conjugated to a fluorescent entity: Licor 800-conjugated goat anti-rabbit IgG (1:2000) and IRDye-700-conjugated goat anti-mouse IgG (1:2000) in ice cold 2% BSA and 0.2% TritonX-100 in PBS with gentle agitation for 45 minutes at room temperature. The wells were washed 2 times in PBS, dried, and analyzed as previously mentioned.
N-Acetamidoalkyl-5-arylisoxazole-3-carboxamide analogs were synthesized as described above. Changes in expression level of E-cadherin in response to 10 μM compound in SW620 cells was determined in a cell-based functional assay as described above, and the data are shown in Table III. The compound number corresponds to the compound numbers used in Table II.
EC50 of inducement of E-cadherin expression in SW620 cells was determined in a cell-based functional assay as described above, and the data are shown in Table V. The compound number corresponds to the compound numbers used in Table IV.
As for `O=C(NCCCNC(=O)c1cc(-c2cccs2)on1)c1ccc(O)cn1` [Compound 41, N-(3-(5-hydroxypicolinamido)propyl)-5-(thiophen-2-yl)isoxazole-3-carboxamide], the fold induction at 10 µM turned out to be 2.77.

With `O=C(NCCCNC(=O)c1cncnc1O)c1cc(-c2cccs2)on1` [Compound 42, N-(3-(4-hydroxypyrimidine-5-carboxamido)propyl)-5-(thiophen-2-yl)isoxazole-3-carboxamide], the fold induction at 10 µM is 0.95. On the same count and under the same terms, as for `COc1ccc(C(=O)NCCCNC(=O)c2cc(-c3cccs3)on2)c(OC)n1` [Compound 43, N-(3-(2,6-dimethoxynicotinamido)propyl)-5-(thiophen-2-yl)isoxazole-3-carboxamide], the figure is 1.45. The same measure, in the same setting: to `O=C(NCCCNC(=O)c1ncccc1F)c1cc(-c2cccs2)on1` [Compound 44, N-(3-(3-fluoropicolinamido)propyl)-5-(thiophen-2-yl)isoxazole-3-carboxamide] belongs 3.36; to `O=C(NCCCNC(=O)c1cccc(Br)n1)c1cc(-c2cccs2)on1` [Compound 45, N-(3-(6-bromopicolinamido)propyl)-5-(thiophen-2-yl)isoxazole-3-carboxamide], 3.35; to `Cc1ccc(C(=O)NCCCNC(=O)c2cc(-c3cccs3)on2)c(O)n1` [Compound 46, N-(3-(2-hydroxy-6-methylnicotinamido)propyl)-5-(thiophen-2-yl)isoxazole-3-carboxamide], 3.48.

With `Cc1ncccc1C(=O)NCCCNC(=O)c1cc(-c2cccs2)on1` [Compound 47, N-(3-(2-methylnicotinamido)propyl)-5-(thiophen-2-yl)isoxazole-3-carboxamide], the fold induction at 10 µM amounted to 2.72. Same read-out and setting: to `COC(=O)c1ccc(C(=O)NCCCNC(=O)c2cc(-c3cccs3)on2)nc1` [Compound 48, methyl 6-((3-(5-(thiophen-2-yl)isoxazole-3-carboxamido)propyl)carbamoyl)nicotinate] belongs 1.48.

On to `O=C(NCCCNC(=O)c1cc(-c2cccs2)on1)c1ccc(O)nc1` [Compound 49, N-(3-(6-hydroxynicotinamido)propyl)-5-(thiophen-2-yl)isoxazole-3-carboxamide], for which the fold induction at 10 µM is 1.71.

In the case of `O=C(NCCCNC(=O)c1cc(Br)cnc1O)c1cc(-c2cccs2)on1` [Compound 50, N-(3-(5-bromo-2-hydroxynicotinamido)propyl)-5-(thiophen-2-yl)isoxazole-3-carboxamide], the fold induction at 10 µM came out at 1.4. The same measure, in the same setting: to `Cc1ccnc(O)c1C(=O)NCCCNC(=O)c1cc(-c2cccs2)on1` [Compound 51, N-(3-(2-hydroxy-4-methylnicotinamido)propyl)-5-(thiophen-2-yl)isoxazole-3-carboxamide] belongs 2.73.

As for `COc1ncccc1C(=O)NCCCNC(=O)c1cc(-c2cccs2)on1` [Compound 52, N-(3-(2-methoxynicotinamido)propyl)-5-(thiophen-2-yl)isoxazole-3-carboxamide], the fold induction at 10 µM amounted to 3.99.

Regarding `CCOc1ncccc1C(=O)NCCCNC(=O)c1cc(-c2cccs2)on1` [Compound 53, N-(3-(2-ethoxynicotinamido)propyl)-5-(thiophen-2-yl)isoxazole-3-carboxamide], the fold induction at 10 µM was determined as 3.52. On the same count and under the same terms, to `O=C(NCCCNC(=O)c1cc(-c2cccs2)on1)c1cncc(F)c1` [Compound 54, N-(3-(5-fluoronicotinamido)propyl)-5-(thiophen-2-yl)isoxazole-3-carboxamide] belongs 2.22; to `Cc1cccnc1C(=O)NCCCNC(=O)c1cc(-c2cccs2)on1` [Compound 55, N-(3-(3-methylpicolinamido)propyl)-5-(thiophen-2-yl)isoxazole-3-carboxamide], 2.98.

As to `O=C(NCCCNC(=O)c1cc(-c2ccccc2)on1)c1cccnc1` [Compound 56, N-(3-(nicotinamido)propyl)-5-phenylisoxazole-3-carboxamide], the fold induction at 10 µM amounted to 3.43.

For `O=C(NCCCNC(=O)c1cc(-c2ccccc2)on1)c1cc(Cl)ccn1` [Compound 57, N-(3-(4-chloropicolinamido)propyl)-5-phenylisoxazole-3-carboxamide], the fold induction at 10 µM amounted to 3.3.

`O=C(NCCCNC(=O)c1cc(-c2ccccc2)on1)c1ccc(O)cn1` [Compound 58, N-(3-(5-hydroxypicolinamido)propyl)-5-phenylisoxazole-3-carboxamide]: the fold induction at 10 µM came to 3.57. Take `O=C(NCCCNC(=O)c1ccncc1O)c1cc(-c2ccccc2)on1` [Compound 59, N-(3-(3-hydroxyisonicotinamido)propyl)-5-phenylisoxazole-3-carboxamide]: the fold induction at 10 µM came out at 1.26. The same measure, in the same setting: to `COc1ccc(C(=O)NCCCNC(=O)c2cc(-c3ccccc3)on2)c(OC)n1` [Compound 60, N-(3-(2,6-dimethoxynicotinamido)propyl)-5-phenylisoxazole-3-carboxamide] belongs 2.32.

`O=C(NCCCNC(=O)c1ncccc1F)c1cc(-c2ccccc2)on1` [Compound 61, N-(3-(3-fluoropicolinamido)propyl)-5-phenylisoxazole-3-carboxamide]: the fold induction at 10 µM is 2.94. With `O=C(NCCCNC(=O)c1cccc(Br)n1)c1cc(-c2ccccc2)on1` [Compound 62, N-(3-(6-bromopicolinamido)propyl)-5-phenylisoxazole-3-carboxamide], the fold induction at 10 µM worked out at 2.59. The same measure, in the same setting: to `Cc1ccc(C(=O)NCCCNC(=O)c2cc(-c3ccccc3)on2)c(O)n1` [Compound 63, N-(3-(2-hydroxy-6-methylnicotinamido)propyl)-5-phenylisoxazole-3-carboxamide] belongs 4.59; to `O=C(NCCCNC(=O)c1cc(-c2ccccc2)on1)c1ccnc(O)c1` [Compound 64, N-(3-(2-hydroxyisonicotinamido)propyl)-5-phenylisoxazole-3-carboxamide], 1.8. On the same count and under the same terms, as for `Cc1ncccc1C(=O)NCCCNC(=O)c1cc(-c2ccccc2)on1` [Compound 65, N-(3-(2-methylnicotinamido)propyl)-5-phenylisoxazole-3-carboxamide], the figure is 2.05; as for `COC(=O)c1ccc(C(=O)NCCCNC(=O)c2cc(-c3ccccc3)on2)nc1` [Compound 66, methyl 6-((3-(5-phenylisoxazole-3-carboxamido)propyl)carbamoyl)nicotinate], 1.55. Still for that read-out and setting: to `O=C(NCCCNC(=O)c1cc(-c2ccccc2)on1)c1ccc(O)nc1` [Compound 67, N-(3-(6-hydroxynicotinamido)propyl)-5-phenylisoxazole-3-carboxamide] belongs 1.22; to `O=C(NCCCNC(=O)c1cc(Br)cnc1O)c1cc(-c2ccccc2)on1` [Compound 68, N-(3-(5-bromo-2-hydroxynicotinamido)propyl)-5-phenylisoxazole-3-carboxamide], 1.61. As to `Cc1ccnc(O)c1C(=O)NCCCNC(=O)c1cc(-c2ccccc2)on1` [Compound 69, N-(3-(2-hydroxy-4-methylnicotinamido)propyl)-5-phenylisoxazole-3-carboxamide], the fold induction at 10 µM is 2. The same measure, in the same setting: as for `COc1ncccc1C(=O)NCCCNC(=O)c1cc(-c2ccccc2)on1` [Compound 70, N-(3-(2-methoxynicotinamido)propyl)-5-phenylisoxazole-3-carboxamide], the figure is 2.62; as for `Cc1cccnc1C(=O)NCCCNC(=O)c1cc(-c2ccccc2)on1` [Compound 71, N-(3-(3-methylpicolinamido)propyl)-5-phenylisoxazole-3-carboxamide], 3.61. Still for that read-out and setting: as for `O=C(NCCCNC(=O)c1ccc2ccccc2n1)c1cc(-c2cccs2)on1` [Compound 72, N-(3-(quinoline-2-carboxamido)propyl)-5-(thiophen-2-yl)isoxazole-3-carboxamide], the figure is 3.13. Still for that read-out and setting: to `O=C(NCCCNC(=O)c1cnc2ccccn12)c1cc(-c2cccs2)on1` [Compound 73, N-(3-(imidazo[1,2-a]pyridine-3-carboxamido)propyl)-5-(thiophen-2-yl)isoxazole-3-carboxamide] belongs 3.04.

Still in this experiment, the particulars now being: Homo sapiens, SW-620; inducement of E-cadherin expression in SW620 cells.
`Cc1ccc(C(=O)NCCCNC(=O)c2cc(-c3ccccc3)on2)c(O)n1` [Compound 63, N-(3-(2-hydroxy-6-methylnicotinamido)propyl)-5-phenylisoxazole-3-carboxamide] returned an EC50 of 5.64 µM.
